Results reported in US11207379B2, “Peptides with anti-cancer activity” (IDP DISCOVERY PHARMA, S.L., priority 2016, dated 2021).
Numbered stars: 1 amine (or outer) side, 2 acyl side, 3 side chain; on linkers, the order of the positions; unused ones are H or OH. Peptide text beside a SMILES is read from it. Suc = O=C(CCC(=O)[*:2])[*:1]

Tests used:
Assay type in all cases: cell-based
[1] = target: RAMOS, B lymphocyte (Burkitt's Lymphoma); experiment: Viability assay (MTT, Alamar Blue, hexosaminidase), 72 h; settings: Ramos cells, read-out: EC50
Method: RAMOS, B lymphocyte (Burkitt's Lymphoma), ATCC: CRL-1596
(§1) Cell lines A549, MCF-7 and RAMOS were cultured in incubator under CO2 (6%) at 37° C. in DMEM high glucose (Dulbecco's Modified Eagle Solution, Gibco-BRL 31966-21) medium with 10% fetal bovine serum inactivated (FBS) (Gibco-BRL 10106-169). Cell lines HL-60 and MM.1S were cultured in incubator at 37° C. in RPMI-1640 (Sigma R8758) medium with 10% of fetal bovine serum inactivated (FBS) and 2 mM glutamine (Sigma G7513). Cell lines BJ were cultured in incubator under CO2 (6%) at 37° C. in Eagle's Minimum Essential Medium (Sigma, M-2279) with 10% fetal bovine serum inactivated (FBS) (Gibco-BRL 10106-169).
(§2) During the amplification step and the assays adherent cells were rinsed with DPBS (Dulbecco's Phosphate Buffered Saline, Sigma D1283) three times and afterward treated for 5 minutes with trypsin ([…]) (Gibco-BRL, 15400054) in solution of DPBS at 37° C., and, once detached, transferred in the culturing medium. No-adherent cells were centrifuged and transferred in the culturing medium. Cells were counted in a Neubauer chamber after labelling with Tripan-Blue.
(§3) A549, MCF-7 and JB cells were seeded at a density of 5000 cells/well and HL-60, MM.1S and Ramos at 10000 cells/well in 100 μl of medium in 96 well plates. After 24 h, the compounds to be tested were added to calculate the dose/response curve at the starting concentration of 100 μM with serial dilutions (1:1). Controls are the untreated cells. Each experiment was performed in triplicate.
(§4) Cells were incubated during 72 h in incubator under CO2 atmosphere at 37° C. Cell viability was measured by means of MTT (3-(4,5-dimethylthiazol-2-yl)-2.5-diphenyltetrazolium bromide) assay, Alamar Blue® (Biosource DAL1100) and Hexosaminidase activity test, consecutively, following manufacturer instructions.
(§5) MTT: 1. Stock solution of MTT (475989 Calbiochem) was 5 mg/ml in PBS 1×. As negative control (experiment noise) 3 wells were treated with 20 μl/well of a solution of SDS 10% in H2O. The same control was used for Alamar Blue/Hexosaminidase. 10 μl/well of MTT solution were added and the plate was incubated for 3-4 hr. The medium was discarded and 100 μl of extracting buffer (PBS 1×, 15% SDS, 50% […] N,N-Dimethylformamide, pH 4.7) were added to each well. Plates were incubated for 16 h at room temperature under orbital shaking. Absorbance at 570 nm was finally measured.
(§6) Alamar Blue: 10 μl Alamar Blue solution was added to each well and the plates were incubated for […] in the incubator. Fluorescence ratio at 535/590 (excitation/emission) was measured in Cytofluor (Millipore) fluorimeter. Blank control was determined by lysis of untreated cells with con 2% of Triton X100, right before adding Alamar Blue solution.
(§7) Hexosaminidase activity test: after Alamar Blue lecture, medium was discarded and plates were rinsed once with PBS. 60 μl hexosaminidase substrate (p-nitrophenol-N-acetyl-beta-D-glucosamide 7.5 mM [Sigma N-9376], sodium citrate 0.1 M, pH 5.0, 0.25% Triton X-100) was added to each well and the plates were incubated at 37° C. for 2-5 h, according to the cell type (hexosaminidase activity changes according to the cell type). […] Blank control was the same as described before.
(§8) Data analysis was performed calculating the percentage of cell viability normalized vs. the values of negative control, which was considered equal to 100%. The dose/response curve was fitted through the sigmoidal equation dose-response (variable slope) and the EC50 values were calculated as follow: Y=Bottom+(Top−Bottom)/(1+10^{[(Log EC50−X)*HillSlope]},

[2] = test system: JB healthy cells (BJ, fibroblast, normal skin); experiment: as above
Method: BJ, fibroblast (normal skin), ATCC® CRL-2522™
as §1
as §2, with “No-adherent cells were centrifuged and transferred in the culturing medium.” left out, “Tripan-Blue. […]” for “Tripan-Blue.”
as §4, with “instructions. […]” for “instructions.”

[3] = target: A549, epithelial (lung cancer); experiment: as above; settings: A549 cells, read-out: EC50
Method: A549, epithelial (lung cancer), ATCC:CCL-185
as §1, §2, §3, §4, §5, §6, §7, §8

[4] = test system: A549 cells; experiment: Annexin V assay by flow cytometry
Method: (§9) Miltenyi Biotec Annexin V-FITC Kit was used. To detect apoptosis in early stage Phosphatidylserine in plasmatic membrane localization was measured, though the calcium dependent reaction with Annexine V. Annexin V molecules were labelled with different fluorophores (FITC) and analyzed by FACS. To detect apoptosis in late stage DNA-intercalating agents, such Propidium iodide (PI) were used.
Cells were seeded at a density range of 150000-30000 cells/well in 12 wells plates, and incubated at 37° C. in the incubator under CO2 atmosphere. After 24 h, […] A549, HL-60 and MM.1S, at IC30 and/or IC80, with compounds IDP-S09 and IL-09, in cell lines HL-60 and MM.1S with compound IDP-S04 and in cell line A549 with compounds IDP-S02 and IDP-S03. Staurosporine and compound 100258-F4 (Sigma) were used as positive control and reference compound, respectively.

[5] = target: HL-60, promyeloblast (acute myelocytic leukemia, AML); experiment: Viability assay (MTT, Alamar Blue, hexosaminidase), 72 h; settings: HL-60 cells, read-out: EC50
Method: HL-60, promyeloblast (acute myelocytic leukemia, AML), ECACC: 98070106
as §1, §2, §3, §4, §5, §6, §7, §8

[6] = target: MM.1S, B Lymphoblast (multiple myeloma); experiment: as above; settings: MM.1S cells, read-out: EC50
Method: MM.1S, B Lymphoblast (multiple myeloma), ATCC: CRL-2974
as §1, §2, §3, §4, §5, §6, §7, §8

[7] = target: MCF-7, epithelial (breast cancer); experiment: as above; settings: MCF7 cells, read-out: EC50
Method: MCF-7, epithelial (breast cancer), ECACC: 86012803
as §1, §2, §3, §4, §5, §6, §7, §8

[8] = test system: HL-60 cells; experiment: Annexin V assay by flow cytometry; settings: for Percentage of HL-60 gated cells (positive to Annexin V): compound at EC30, control = 100%
Method: as §9
(§10) Cells were seeded at a density range of 150000-30000 cells/well in 12 wells plates, and incubated at 37° C. in the incubator under CO2 atmosphere. After 24 h, treatments at 4 h, 8 h, 18 h, 48 h and 72 h were performed in cell lines A549, HL-60 and MM.1S, at IC30 and/or IC80, with compounds IDP-S09 and IL-09, in cell lines HL-60 and MM.1S with compound IDP-S04 and in cell line A549 with compounds IDP-S02 and IDP-S03. Staurosporine and compound 100258-F4 (Sigma) were used as positive control and reference compound, respectively.

[9] = test system: MM.1S cells; experiment: Annexin V assay by flow cytometry
Method: as §9, §10

[10] = 4 h, compound at EC30, control = 100%
[11] = 4 h, compound at EC80, control = 100%

CC[C@H](C)[C@H](NC(=O)[C@H](Cc1ccc(O)cc1)NC(=O)[C@H](C)NC(=O)[C@H](CC(C)C)NC(=O)[C@H](C)NC(=O)[C@H](CCCCN)NC(=O)[C@H](CCCCN)NC(=O)[C@H](Cc1ccccc1)NC(=O)[C@@H](NC(=O)[C@@H](NC(=O)[C@@H](NC(=O)[C@H](CCCCN)NC(=O)[C@@H]1CCCN1C(=O)[C@H](C)NC(=O)[C@H](CCCNC(=N)N)NC(=O)[C@H](CCCNC(=N)N)NC(=O)[C@H](CCCNC(=N)N)NC(=O)[C@H](CCCNC(=N)N)NC(=O)[C@H](CCCNC(=N)N)NC(=O)[C@H](CCCNC(=N)N)NC(=O)[C@H](CCCNC(=N)N)NC(=O)CCC(=O)O)[C@@H](C)CC)C(C)C)[C@@H](C)CC)C(N)=O [IDP-L09] (Suc-RRRRRRRAPKIVIFKKALAYI-NH2)
EC50 [1]: 28 ± 1 µM | EC50 [2]: > 100 µM | EC50 [3]: 48 ± 5 µM | Percentage of A549 gated cells (positive to Annexin V) [4, 10]: 900% | Percentage of A549 gated cells (positive to Annexin V) [4, 11]: 2400% | Percentage of A549 gated cells (positive to Annexin V) ([4]; 16 h, compound at EC30, control = 100%): 400% | Percentage of A549 gated cells (positive to Annexin V) ([4]; 16 h, compound at EC80, control = 100%): 950% | apoptosis induction (Annexin V by FACS), in words ([4]; A549 cells): fast induction (4 h) is observed | EC50 [5]: 46 ± 6 µM | EC50 [6]: 25 ± 1 µM | EC50 [7]: ~28 µM | Percentage of HL-60 gated cells (positive to Annexin V) ([8]; 48 h): 590% | Percentage of HL-60 gated cells (positive to Annexin V) ([8]; 72 h): 230% | apoptosis induction (Annexin V by FACS), in words ([8]; HL-60 cells): apoptosis induction is significant after 48 h and 72 h at low concentrations (IC30) | Percentage of MM.1S gated cells (positive to Annexin V) [9, 10]: 50% | Percentage of MM.1S gated cells (positive to Annexin V) [9, 11]: 50% | Percentage of MM.1S gated cells (positive to Annexin V) ([9]; 8 h, compound at EC30, control = 100%): 220% | Percentage of MM.1S gated cells (positive to Annexin V) ([9]; 8 h, compound at EC80, control = 100%): 310% | Percentage of MM.1S gated cells (positive to Annexin V) ([9]; 48 h, compound at EC30, control = 100%): 190% | Percentage of MM.1S gated cells (positive to Annexin V) ([9]; 72 h, compound at EC30, control = 100%): 500% | apoptosis induction (Annexin V by FACS), in words ([9]; MM.1S cells): induces apoptosis at 8 h, 48 h and 72 h at low concentration (IC30) and at 8 h at high concentration (IC80)
